These results are taken from ChEMBL document CHEMBL1201862, “PubChem BioAssay data set” (2004).

Among the test systems are K562; HCC 2998; CCRF-CEM; SNB-75; SNB-19; HT-29; Malme-3M; ACHN; SK-MEL-5; UACC-257; OVCAR-5; HCT-15; SNB-78; KM-20L2; NCI-H460; UACC-62; DMS-273; OVCAR-8.
Test in all cases: inhibition of tumour cell growth, NCI panel, 48 h

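48-hour exposure; five concentrations; linearly interpolated endpoints. The concentration for 50% growth inhibition is given as GI50.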 Calls of active or inactive are those of the source. Cut-off read from the data, not from the text of the source: active = GI50 up to about 1.1 µM and inactive = higher.

Consider `O=C(NC12CC3CC(CC(C3)C1)C2)C(=O)c1c[nH]c2ccc(Cl)cc12`, for which the GI50 was 3.8 µM (inactive) with K562; 32.9 µM (inactive) in the test on HCC 2998; 46.3 µM (inactive) in the test with CCRF-CEM; 20.9 µM (inactive) in the test on SNB-75; 26.8 µM (inactive) with SNB-19; 3.97 µM (inactive) in the test with HT-29. Further, the GI50 in the test with Malme-3M is 34.9 µM (inactive); in the test on ACHN, 33.3 µM (inactive); with SK-MEL-5 it was 42.2 µM (inactive); in the test on UACC-257, 97.1 µM (inactive); in the test on OVCAR-5, > 100 µM (inactive); in the test on HCT-15, 21.2 µM. In addition, the GI50 is 83.2 µM (inactive) with SNB-78; 5.73 µM (inactive) in the test with KM-20L2; 22.2 µM (inactive) in the test on NCI-H460; 40.1 µM (inactive) with UACC-62; 16.8 µM (inactive) with DMS-273.
With `FC(F)(F)c1ccc2nc(Nc3ccc(Cl)c(Cl)c3)c(-c3ccccc3)nc2c1`, the GI50 was 86.7 µM (inactive) in the test with HCC 2998; 30.5 µM (inactive) in the test with CCRF-CEM; 21 µM (inactive) with OVCAR-8; 74 µM (inactive) with SNB-19; 26 µM (inactive) with HT-29; > 100 µM (inactive) in the test with Malme-3M. Also, the GI50 with ACHN was 40.3 µM (inactive); in the test on UACC-257, 85.5 µM (inactive); with OVCAR-5, > 100 µM (inactive); in the test with HCT-15, 0.659 µM; in the test on SNB-78, 27.4 µM (inactive); with KM-20L2 it was 55.7 µM (inactive). Also, the GI50 in the test with NCI-H460 was 7.05 µM (inactive); in the test with DMS-273, 6.55 µM (inactive).
For the compound `CC(=O)Nc1[nH]c(=O)[nH]c(=O)c1N(C(C)=O)C(C)=O`, the GI50 in the test on K562, with HCC 2998, in the test on CCRF-CEM, with OVCAR-8, with SNB-19 and with HT-29 was > 100 µM (inactive) in each case. Besides, the GI50 was > 100 µM (inactive) in the test on Malme-3M; > 100 µM (inactive) in the test on ACHN; > 100 µM (inactive) in the test on SK-MEL-5; > 100 µM (inactive) in the test on UACC-257; > 100 µM (inactive) in the test on OVCAR-5; over 100 µM in the test with HCT-15. In addition, the GI50 with SNB-78, in the test with KM-20L2, in the test with NCI-H460, in the test on UACC-62 and in the test with DMS-273 was > 100 µM (inactive) in each case.
In the case of `COC(=O)C1=C(C(=O)OC)N(C(C)C)[C@H]2C(C(=O)OC)=C(C(=O)OC)N(C(C)C)[C@@H]12`, the GI50 in the test on K562 is > 100 µM (inactive); with CCRF-CEM, > 100 µM (inactive); in the test with OVCAR-8, > 100 µM (inactive); in the test with SNB-75 it was 93.3 µM (inactive); in the test with SNB-19, > 100 µM (inactive); in the test on HT-29, > 100 µM (inactive). For the same compound, the GI50 is > 100 µM (inactive) in the test on Malme-3M; > 100 µM (inactive) with ACHN; > 100 µM (inactive) in the test with SK-MEL-5; > 100 µM (inactive) with UACC-257; > 100 µM (inactive) in the test on OVCAR-5; over 100 µM with HCT-15. Further, the GI50 in the test on SNB-78, with KM-20L2, in the test on NCI-H460, in the test on UACC-62 and in the test with DMS-273 was > 100 µM (inactive) in each case.
With `CCOC(=O)C(Oc1ccc(OC)c2c1C(=O)CCC2)c1ccccc1` (stereo not given), the GI50 in the test with K562 was 49.2 µM (inactive); in the test with HCC 2998, > 100 µM (inactive); with CCRF-CEM it was 65.5 µM (inactive); with OVCAR-8, > 100 µM (inactive); in the test on SNB-19 it was > 100 µM (inactive); with HT-29 it was 53.1 µM (inactive). The GI50 in the test with Malme-3M was > 100 µM (inactive); in the test on ACHN it was > 100 µM (inactive); in the test with SK-MEL-5, 43.2 µM (inactive); in the test on UACC-257, > 100 µM (inactive); in the test with OVCAR-5 it was > 100 µM (inactive); in the test with HCT-15, over 100 µM. Besides, the GI50 with SNB-78 is 74 µM (inactive); in the test with KM-20L2, > 100 µM (inactive); with NCI-H460, > 100 µM (inactive); in the test with UACC-62, 69.3 µM (inactive); with DMS-273 it was 98.9 µM (inactive).
With `CCCCCN(CCCCC)C(=O)[C@@H](CCC(=O)O)NC(=O)c1cc2ccccc2[nH]1`, the GI50 was 36.5 µM (inactive) in the test with K562; 34 µM (inactive) in the test on HCC 2998; 22.8 µM (inactive) with CCRF-CEM; 52.8 µM (inactive) with OVCAR-8; 12.3 µM (inactive) in the test on SNB-75; 34.9 µM (inactive) in the test on SNB-19. In addition, the GI50 in the test on HT-29 was 46.6 µM (inactive); in the test with Malme-3M, 35.4 µM (inactive); in the test on ACHN, 30.5 µM (inactive); with UACC-257, 49.4 µM (inactive); in the test on OVCAR-5 it was > 100 µM (inactive); with HCT-15, 37.7 µM. Further, the GI50 in the test with SNB-78 was 59.6 µM (inactive); in the test with KM-20L2, 40.5 µM (inactive); with NCI-H460 it was 34.4 µM (inactive); in the test with UACC-62, 20.7 µM (inactive); in the test on DMS-273 it was 32.1 µM (inactive).
In the case of `CCN(CC)CCCNc1nccc2c(C)c3c(cc12)c1cnccc1n3C`, the GI50 is 0.0211 µM (active) in the test with K562; 0.0401 µM (active) with HCC 2998; < 0.01 µM (active) in the test with CCRF-CEM; 0.0692 µM (active) in the test on OVCAR-8; 0.427 µM (active) in the test with SNB-75; 0.288 µM (active) in the test on SNB-19. Also, the GI50 in the test with HT-29 is 0.0101 µM (active); in the test with ACHN, 0.353 µM (active); in the test on SK-MEL-5 it was 0.431 µM (active); in the test with HCT-15 it was 0.0468 µM; in the test with SNB-78, 0.807 µM (active); in the test with KM-20L2, 0.0682 µM (active). Besides, the results for the GI50 with NCI-H460, in the test with UACC-62 and in the test on DMS-273 were 0.0111 µM (active), 0.891 µM (active) and 0.0353 µM (active), respectively.
Take `Cc1ccc(S(=O)(=O)N/N=C(\c2nc3ccc([N+](=O)[O-])cc3[nH]c2=O)C(O)c2ccc([N+](=O)[O-])cc2)cc1` (stereo not given): the GI50 in the test on K562 is 29.2 µM (inactive); with HCC 2998, 28.2 µM (inactive); with CCRF-CEM, 22.3 µM (inactive); in the test with OVCAR-8 it was > 100 µM (inactive); in the test on SNB-75, > 100 µM (inactive); with SNB-19 it was > 100 µM (inactive). Besides, the GI50 with Malme-3M was > 100 µM (inactive); in the test with ACHN it was 35 µM (inactive); in the test with SK-MEL-5, 73.8 µM (inactive); with UACC-257, > 100 µM (inactive); in the test with OVCAR-5 it was 67.1 µM (inactive); with HCT-15, 28.2 µM. Moreover, the GI50 in the test with SNB-78 was > 100 µM (inactive); in the test on KM-20L2, 46.2 µM (inactive); in the test on NCI-H460 it was 55.2 µM (inactive); in the test on UACC-62, 85.5 µM (inactive); with DMS-273, 54 µM (inactive).
Consider `COc1cc(CCC(=O)NS(=O)(=O)c2ccccc2)cc(OC)c1OC`, for which the GI50 in the test with K562 is > 100 µM (inactive); in the test with HCC 2998, > 100 µM (inactive); in the test with CCRF-CEM, > 100 µM (inactive); in the test on OVCAR-8, > 100 µM (inactive); in the test with SNB-75 it was 61.4 µM (inactive); in the test on SNB-19, > 100 µM (inactive). Further, the GI50 in the test on HT-29, in the test with Malme-3M, with ACHN, in the test with UACC-257, in the test on OVCAR-5 and in the test with SNB-78 was > 100 µM (inactive) throughout. The GI50 in the test with KM-20L2, in the test with NCI-H460, in the test with UACC-62 and with DMS-273 was > 100 µM (inactive) throughout.
As for `CN1C(c2ccccc2)CS(=O)(=O)CS1(=O)=O` (stereo not given), the GI50 in the test on HCC 2998, with OVCAR-8, in the test with SNB-75, with SNB-19, in the test with HT-29 and in the test with Malme-3M was > 100 µM (inactive) each time. The GI50 in the test with ACHN is > 100 µM (inactive); with SK-MEL-5, > 100 µM (inactive); in the test with UACC-257 it was > 100 µM (inactive); in the test on OVCAR-5 it was > 100 µM (inactive); in the test on HCT-15, over 100 µM; in the test with SNB-78 it was > 100 µM (inactive). In addition, the GI50 in the test with KM-20L2, in the test with NCI-H460, with UACC-62 and in the test on DMS-273 was > 100 µM (inactive) each time.
In the case of `CSCCC(C(=O)O)N(CC1(O)OCC(O)C(O)C1O)N=O` (stereo not given), the GI50 in the test on K562, in the test on HCC 2998, in the test with CCRF-CEM, in the test on OVCAR-8, in the test with SNB-75 and with HT-29 was > 100 µM (inactive) each time. For the same compound, the GI50 with Malme-3M, in the test on ACHN, in the test with SK-MEL-5, with UACC-257, in the test with OVCAR-5 and with SNB-78 was > 100 µM (inactive) throughout. For the same compound, the GI50 in the test with KM-20L2, in the test with NCI-H460, in the test on UACC-62 and in the test with DMS-273 was > 100 µM (inactive) throughout.
On to `Clc1cc(Cl)cc(Nc2nc3ccccc3nc2-c2cccs2)c1`, for which the GI50 in the test on HCC 2998 is 99.3 µM (inactive); in the test on CCRF-CEM it was > 100 µM (inactive); in the test on OVCAR-8, 13.3 µM (inactive); in the test on SNB-75, 32.4 µM (inactive); in the test on SNB-19, > 10 µM (inactive); in the test on HT-29, 14 µM (inactive). The GI50 was 39 µM (inactive) in the test on Malme-3M; 19.4 µM (inactive) in the test on ACHN; 23.7 µM (inactive) in the test with UACC-257; 83.4 µM (inactive) with OVCAR-5; over 100 µM in the test with HCT-15; 62.5 µM (inactive) in the test on SNB-78. In addition, the GI50 with KM-20L2 is > 10 µM (inactive); with NCI-H460, 14.3 µM (inactive); in the test on UACC-62 it was > 10 µM (inactive); in the test with DMS-273, 14.2 µM (inactive).
